Data on 9 compounds can be found in patent US20160374944A1, “COMPOSITIONS AND METHODS FOR TREATING AND PREVENTING CANCER BY TARGETING AND INHIBITING CANCER STEM CELLS” (priority 2011, published 2016).

Assay [1] relates to Pancreatic CSCs. In words: apoptosis. The class given is cell-based, human. The following applies: 48 h, annexin-PI, flow cytometer. How it is done:
(A and B) Induction of apoptosis and activation of caspase-3/-7. Pancreatic CSCs were treated with rottlerin (0-2 μM) for 48 h, and apoptosis and caspase-3/-7 activity were measured by […] and colorometric assay, respectively. […] (C) Pancreatic CSCs were treated with rottlerin (0-1 μM) for 48 h, and the expression of Bcl-2, XIAP and Survivin was measured by qRT-PCR and normalized to GAPDH.
(§1) (A) Pancreatic CSCs were treated with SAHA (3 and 5 μM) and 5-Aza-dc (2 and 4 μM) and cell viability was measured at 48 h by staining with trypan blue using Vi-CELL analyzer (Beckman Counter). (B) Pancreatic CSCs were untreated (a) or treated with SAHA (b) or 5-Aza-dC (c) for 48 h, and apoptosis was measured by staining with annexin-PI using Accuri Flow Cytometer. (C) Caspase-3/7 activity was measured in pancreatic CSCs treated with SAHA (0.5 and 2 μM) or 5-Aza-dC (1 and 3 μM) for 25 h.
(A) Regulation of caspase-3/7 activity by EGCG. CSCs were treated with EGCG (0-60 μM) for 24 h, and caspase-3/7 activity was measured as per manufacturer's instructions. […] (B) Regulation of apoptosis by EGCG. CSCs were treated with EGCG (0-60 μM) for 48 h, and apoptosis was measured by TUNEL assay. […] (C) Regulation of apoptosis-related proteins. Pancreatic CSCs were treated with EGCG (0-60 μM) for 36 h. Real time PCR (q-RT-PCR) was performed to examine the expression of Bcl-2, survivin, XIAP, and GAPDH.
FIG. 42A and FIG. 42B show graphs showing quercetin synergizes with EGCG to inhibit self-renewal capacity, invasion, migration, and TCF/LEF and Gli transcriptional activities in pancreatic CSCs. (A) Effects of EGCG and quercetin on spheroid and colony formation. Upper Panel, uercetin synergizes with EGCG to inhibit spheroid's cell viability. CSCs were seeded in suspension and treated with EGCG (0-60 μM) with or without quercetin (20 μM) for 7 days. At the end of incubation period, all the spheroids were collected and resuspended. Cell viability was measured by trypan blue assay. […] Lower panel, uercetin synergizes with EGCG to inhibit colony formation. Pancreatic CSCs were seeded in soft agar and treated with various doses of EGCG (0-60 μM) with or without quercetin (20 μM) and incubated at […] for 21 days. At the end of incubation period, colonies were counted. […] (B) Effects of EGCG and quercetin on invasion and migration. Upper panel, Matrigel invasion assay. CSCs were plated onto the Matrigel-coated membrane in the top chamber of the transwell and treated with EGCG (0-60 μM) with or without quercetin (20 μM) for 48 hrs. Cells invaded to the lower chambered were fixed with methanol, stained with crystal violet and counted. […] Lower panel, Transwell migration assay. Pancreatic CSCs were plated in the top chamber of the transwell and treated with EGCG (0-60 μM) with or without quercetin (20 μM) for 48 hrs. Cells migrated to the lower chambered were fixed with methanol, stained with crystal violet and counted. […] (C) Quercetin synergizes with EGCG to induce apoptosis. CSCs were seeded in suspension and treated with EGCG (0-60 μM) with or without quercetin (20 μM) for 7 days. At the end of incubation period, all the spheroids were collected. Apoptosis was measured by TUNEL assay. […] (D) Effects of EGCG and quercetin on TCF/LEF and Gli transcriptional activities. Pancreatic CSCs were transduced with either lentivirus encoding TCF/LEF responsive GFP and luciferase genes or Gli-responsive GFP and luciferase genes. Transduced CSCs were treated with EGCG (40 μM) with or without quercetin (20 μM) for 48 hrs and the luciferase activity was measured.
Pancreatic CSCs were (a) untreated, (b) treated with SAHA, or (c) treated with 5-Aza-dC for 48 hours and apoptosis was measured by staining with annexin-PI using Accuri Flow Cytometer. The results of those studies are illustrated in FIG. 31B.
On the technique in general: Flow cytometry measures light scatter and fluorescence of single cells or particles in a stream.

Assay [2] concerns Pancreatic CSCs. In words: cell viability, trypan blue, Vi-CELL analyzer. The class given is cell-based, human. As for the experimental part: Pancreatic CSCs were treated with resveratrol (0-20 μM), curcumin (0-20 μM), honokiol (0-20 μM) and diallyl trisulphide (0-20 μM) for 3 days, and cell viability was measured by staining with trypan blue using Vi-CELL analyzer (Beckman Counter).
Pancreatic CSCs were treated with sulforaphane (0-20 μM), rottlerin (0-2 μM), EGCG (0-60 μM) and embelin (0-5 μM) for 3 days, and cell viability was measured by staining with trypan blue using Vi-CELL analyzer (Beckman Counter).
as §1
Pancreatic CSCs were treated with resveratrol (0-20 μM), curcumin (0-20 μM), honokiol (0-20 μM), and diallyl trisulphide (0-20 μM) for 3 days and cell viability was measured by staining with trypan blue using Vi-CELL analyzer. The results of those studies are illustrated in FIG. 27.
Pancreatic CSCs were treated with sulforaphane (0-20 μM), rottlerin (0-2 μM), EGCG (0-60 μM), and embelin (0-5 μM) for 3 days and cell viability was measured by staining with trypan blue using Vi-CELL analyzer. The results of those studies are illustrated in FIG. 28.
Pancreatic CSCs were treated with SAHA […] Vorinostat (3 and 5 μM) and 5-Aza-2′-deoxycytidine (5-Aza-dC, 2 and 4 μM) and cell viability was measured at 48 hours by staining with trypan blue using Vi-CELL analyzer. The results of those studies are illustrated in FIG. 31A.

Assay [3] has as its system Pancreatic CSCs. In words: cell viability by XTT assay. The note with it: 3 days; BSC 0-20 μM, honokiol 0-10 μM. The format is cell-based, human. How it is done: (§2) (A-B) Pancreatic CSCs were treated with BSC (0-20 μM) and honokiol (0-10 μM); (C-D) Prostate CSCs were treated with PITC (0-20 μM) and BSC (0-20 μM) for 3 days. Cell viability was measured by XTT assay.
(In general: Tetrazolium dyes change colour on reduction, which living cells bring about.)

For assay [4], the system named is Prostate CSCs. Nature of the assay: cell viability by XTT assay. The class given is cell-based, human. The following applies: 3 days; PITC 0-20 μM, BSC 0-20 μM. How it is done:
as §2

The subject of a further assay is Breast CSCs. Nature of the assay: cell viability by XTT assay. The format is cell-based. The following applies: 3 days. How it is done: Breast CSCs were seeded in 96-well plate and treated with sulforaphane, diallyl trisulphide, resveratrol and curcumin for 3 days. At the end of incubation period, CSCs were harvested and cell viability was measured by XTT assay.
Breast CSCs were seeded in 96-well plate and treated with rottlerin, EGCG, embelin, and honokiol for 3 days. At the end of incubation period, breast CSCs were harvested and cell viability was measured by XTT assay.
(A-D) Breast CSCs were treated with PITC (0-20 μM), BSC, (0-20 μM), sulforaphane (0-20 μM) and honokiol (0-10 μM) for 3 days, and cell viability was measured by XTT assay.
Breast CSCs were treated with rottlerin (0-1 μM) for 3 days, and cell viability was measured by XTT assay.
Breast CSCs were seeded in 96-well plate and treated with sulforaphane, diallyl trisulphide, resveratrol, and curcumin for 3 days and cell viability was measured by XTT assay. The results of those studies are illustrated in FIG. 29.
Breast CSCs were seeded in 96-well plate and treated with Rottlerin, EGCG, embelin, and honokiol for 3 days and cell viability was measured by XTT assay. The results of those studies are illustrated in FIG. 30.

A further assay has as its system pancreatic cancer. The note with it: background statement; cited from earlier work.
Assay [5] concerns Prostate CSCs. In words: cell viability, trypan blue, Vi-CELL analyzer. The note with it: 3 days. The format is cell-based, human. As for the experimental part: Prostate CSCs were treated with resveratrol (0-20 μM), curcumin (0-20 μM), honokiol (0-20 μM) and diallyl trisulphide (0-10 μM) for 3 days, and cell viability was measured by staining with trypan blue using Vi-CELL analyzer (Beckman Counter).
Prostate CSCs were treated with sulforaphane (0-20 μM), rottlerin (0-5 μM), EGCG (0-40 μM) and embelin (0-1 μM) for 3 days, and cell viability was measured by staining with trypan blue using Vi-CELL analyzer (Beckman Counter).
Prostate CSCs were treated with resveratrol (0-20 μM), curcumin (0-20 μM), honokiol (0-20 μM), and diallyl trisulphide (0-10 μM) for 3 days and cell viability was measured by staining with trypan blue using Vi-CELL analyzer. The results of those studies are illustrated in FIG. 25.
Prostate CSCs were treated with sulforaphane (0-20 μM), rottlerin (0-5 μM), EGCG (0-40 μM), and embelin (0-1 μM) for 3 days and cell viability was measured by staining with trypan blue using Vi-CELL analyzer. The results of those studies are illustrated in FIG. 26.

The test system of assay [6] is Brain CSCs. Nature of the assay: cell viability, trypan blue, Vi-CELL analyzer. The class given is cell-based. The following applies: 3 days. How it is done:
Brain CSCs were treated with resveratrol (0-20 μM), curcumin (0-20 μM), honokiol (0-20 μM) and diallyl trisulphide (0-10 μM) for 3 days, and cell viability was measured by staining with trypan blue using Vi-CELL analyzer (Beckman Counter).
Brain CSCs were treated with sulforaphane (0-20 μM), rottlerin (0-1 μM), EGCG (0-40 μM) and embelin (0-5 μM) for 48 h, and cell viability was measured by staining with trypan blue using Vi-CELL analyzer (Beckman Counter).
Brain CSCs were treated with resveratrol (0-20 μM), curcumin (0-20 μM) honokiol (0-20 μM), and diallyl trisulphide (0-10 μM) for 3 days and cell viability was measured by staining with trypan blue using Vi-CELL analyzer. The results of those studies are illustrated in FIG. 23.
Brain CSCs were treated with sulforaphane (0-20 μM), rottlerin (0-1 μM), EGCG (0-40 μM), and embelin (0-5 μM) for 48 hours and cell viability was measured by staining with trypan blue using Vi-CELL analyzer. The results of those studies are illustrated in FIG. 24.

For assay [7], the system named is Brain CSCs. Nature of the assay: cell viability by XTT assay. The format is cell-based. The following applies: 3 days; 0-20 μM. As for the experimental part: (A-B) Brain CSCs were treated with sulforaphane (0-20 μM), and honokiol (0-20 μM) for 3 days, and cell viability was measured by XTT assay.
Setting [8] is: 48 h, SAHA 3 and 5 μM, 5-Aza-dc 2 and 4 μM.

`Nc1ncn([C@H]2C[C@H](O)[C@@H](CO)O2)c(=O)n1` [5-Aza-dC, 5-Aza-2′-deoxycytidine, reference compound]: in the assay with Pancreatic CSCs [1], the apoptosis result was “promote apoptosis”. Further, the cell viability result with Pancreatic CSCs [2] (setting [8]) is on record as “inhibit cell viability”.

As for `N#C[Se]Cc1ccccc1` [BSC, benzyl selenocyanate], the cell viability entry in the assay on Pancreatic CSCs [3], in the assay with Prostate CSCs [4] and with Breast CSCs was “inhibit cell viability” in each case.

With `Nc1ccn([C@@H]2O[C@H](CO)[C@@H](O)C2(F)F)c(=O)n1` [Gemcitabine], in the assay on pancreatic cancer, the “pancreatic cancer patients in whom the drug is effective” value is on record as 30% and the “survival of pancreatic cancer patients” value is “less than 5 years”.

Take `S=C=Nc1ccccc1` [PITC, phenyl isothiocyanate]: the cell viability entry with Prostate CSCs [4] and in the assay with Breast CSCs was “inhibit cell viability” throughout.

Regarding `O=C(CCCCCCC(=O)Nc1ccccc1)NO` [SAHA, reference compound], in the assay with Pancreatic CSCs [1], the apoptosis result is “promote apoptosis”. In the assay on Pancreatic CSCs [2] (setting [8]), the cell viability result is “inhibit cell viability”.

For `COc1cc(/C=C/C(=O)CC(=O)/C=C/c2ccc(O)c(OC)c2)ccc1O` [curcumin], the cell viability result with Prostate CSCs [5], with Pancreatic CSCs [2] (3 days), with Breast CSCs and with Brain CSCs [6] was “inhibit cell viability” each time.

For `C=CCSSSCC=C` [diallyl trisulphide], the cell viability entry in the assay with Prostate CSCs [5], in the assay on Pancreatic CSCs [2] (3 days), with Breast CSCs and in the assay on Brain CSCs [6] was “inhibit cell viability” throughout.

As to `C=CCc1ccc(O)c(-c2ccc(O)c(CC=C)c2)c1` [honokiol], the cell viability result in the assay with Prostate CSCs [5], in the assay on Pancreatic CSCs [2] (3 days), with Brain CSCs [7], in the assay with Pancreatic CSCs [3], in the assay with Breast CSCs and with Brain CSCs [6] was “inhibit cell viability” in each case.

Consider `Oc1ccc(C=Cc2cc(O)cc(O)c2)cc1` [resveratrol], for which the cell viability entry in the assay with Prostate CSCs [5], in the assay on Pancreatic CSCs [2] (3 days), in the assay on Breast CSCs and in the assay on Brain CSCs [6] was “inhibit cell viability” throughout.
